Results published in patent publication US20080118591A1, “Bactericidal Formulations” (priority 2004, published 2008).
Like-named read-outs stand apart in the source and are kept apart here.

Legend:
[1] = system: Pseudomonas aeruginosa; assay: Rapid bactericidal activity of liquid wash formulations; assay type: cell-based
Procedure: The above formulations are supplemented with 0.9% (w/v) of the perfume composition A of example 2. A control of each formulation is left un-perfumed. The rapid bactericidal activity of these formulations is then tested as follows: • The products are diluted 1:1 in hard water as defined in the European standard EN 1276. This mimics conditions of use on wet hands or wet surfaces in commonly used water. • 500 μl of the product is mixed with 25 μl of a bacterial inoculum containing 2×10^8 cfu/ml (colony forming units). • The mixture is incubated for 30 seconds at 37° C. • 20 μl of the mixture is removed and added to 180 μl neutralising solution (containing 3 g lecithin, 30 g Tween® 80, 5 g sodium thiosulfate, 1 g histidine, 30 g saponin, 8.5 g sodium chloride, 1 g tryptone and 1000 ml water). • The mixture with neutraliser is incubated for 1 min • Serial dilutions of the mixture with neutralising solution are made, and aliquots of these are added to Petri-dishes and embedded in tryptic soy agar containing 0.5% Tween® 80 to inactivate any residual antibacterial compounds. • Bacterial numbers are counted after 24 h incubation at 37° C. and compared to control samples. • Reduction in bacterial viability is determined as described in example 1
The resulting formulations are tested in a 1:1 dilution for their rapid bactericidal effects after 30 seconds for Pseudomonas aeruginosa.
Formulation IVg is supplemented as indicated in the table below with various different chelating agents instead of EDTA and is tested as described in example 5a. The resulting products are tested with 30 s contact time at a 1:1 dilution for bactericidal effects on P. aeruginosa.

[2] = system: gram-negative bacteria; assay: Rapid bactericidal effect of perfume ingredients (example 1, Mueller-Hinton broth, most probable number method); assay type: cell-based; details: for rapid (30 s) bactericidal activity on gram-negative bacteria (class): 30 s contact time, 0.1% or 0.2% (w/v) in Mueller-Hinton broth
Procedure: A sufficiently rapid bactericidal activity of a perfume ingredient against gram-negative bacteria according to the invention is determined as follows. The perfume ingredient must have a reduction factor of bacterial viability of at least 20-fold when it is tested in a concentration of 0.2% in Mueller Hinton Broth with a contact time of 30 seconds as described below. The perfume ingredient is dissolved in dimethylsulfoxide (DMSO) in a concentration of 4% (w/v). An aliquot (10 μl) of the solution is added to individual wells of microtiter plates.
200 μl of Mueller-Hinton broth containing a bacterial inoculum of 2.5×10^6 cfu (colony forming units) is added. After 30 s contact time, 20 μl of the test solution is removed and added to 180 μl of a neutralising solution (containing 3 g lecithin, 30 g Tween® 80, 5 g sodium thiosulfate, 1 g histidine, 30 g saponin, 8.5 g sodium chloride, 1 g tryptone and 1000 ml water). After 1 min incubation, the sample is serially diluted 1:1 in Micotiter-plates containing 100 μl Mueller-Hinton Broth per well, and then incubated for 24 h at 37° C. The maximal dilution showing bacterial growth is recorded to determine the number of surviving bacteria (so-called most probable number method, which is a well-known microbiological method), and results are compared to control samples without added perfumery chemicals. Reduction in bacterial viability is thus calculated by dividing numbers of bacteria in control samples by the number surviving in the treated samples. […].
Test organisms Escherichia coli (ATCC 10536), Salmonella typhimurium (ATCC 13311) and Pseudomonas aeruginosa (ATCC 15442) are used. For Pseudomonas aeruginosa the test solution contains additionally 0.1% EDTA.
A large number of commercially-available materials including a collection of 900 perfumery chemicals is tested. The materials are dissolved in dimethylsulfoxide (DMSO) in a concentration of 4% (w/v). An aliquot (5 μl or 10 μl) of each solution is added to individual wells of microtiter plates. 200 μl of Mueller-Hinton broth containing a bacterial inoculum of 2.5×10^6 cfu (colony forming units) is added. After 30 s and 60 s contact time, 20 μl of the test solution is removed and added to 180 μl of a neutralising solution (containing 3 g lecithin, 30 g Tween® 80, 5 g sodium thiosulfate, 1 g histidine, 30 g saponin, 8.5 g sodium chloride, 1 g tryptone and 1000 ml water). After 1 min incubation, the samples are serially diluted 1:1 in Micotiter-plates containing 100 μl Mueller-Hinton Broth per well, and then incubated for 24 h at 37° C. The maximal dilution showing bacterial growth is recorded to determine the number of surviving bacteria (so-called most probable number method, which is a well-known microbiological method), and results are compared to control samples without added perfumery chemicals. Reduction in bacterial viability is thus calculated by dividing numbers of bacteria in control samples by the number surviving in the treated samples.

[3] = Pyrene 1:3 ratio (I373/I384) for micelle formation; assay type: physicochemical
Procedure: To 100 μl of each dilution, 5 μl of a pyrene solution (0.4 mM in ethanol) is added. After equilibration, the fluorescence of the solution with an excitation at 335 nm is determined.
To 100 μl of each dilution, 5 μl of a pyrene solution (0.4 mM in ethanol) is added. After equilibration, the fluorescence of the solution with an excitation at 335 nm is determined on an LS-50 Perkin Elmer fluorescence spectrometer.

[4] = chelating agent added to formulation instead of EDTA, 1:1, 30 s

In the case of O=C(O)CN(CC(=O)O)[C@@H]1CCCC[C@H]1N(CC(=O)O)CC(=O)O (relative stereo) [CDTA, trans 1,2-diaminocyclohexane-N,N,N′N′-tetraacetic acid], the “effect of the chelating agent on rapid activity of the formulation against Pseudomonas aeruginosa (in words)” value (shortened to “effect of the chelating agent”) [1] is reported as “further improves the effectiveness”.

In the case of CC(O)(P(=O)(O)O)P(=O)(O)O [1-hydroxyethylidene-1,1-phosphonic acid], the “effect of the chelating agent” value [1] is reported as “not able to provide this improved activity”.

With O=P(O)(O)CN(CP(=O)(O)O)CP(=O)(O)O [Aminotri (methylene-phosponic acid)] the “effect of the chelating agent” value [1, 4] was “not able to provide this improved activity”.

In the case of O=C(O)CN(CCN(CC(=O)O)CC(=O)O)CCN(CC(=O)O)CC(=O)O [DTPA, di-ethylen-triamine-penta-acetate], the “effect of the chelating agent” value [1, 4] is reported as “not able to provide this improved activity”.

For O=C(O)C[C@H](NCCN[C@@H](CC(=O)O)C(=O)O)C(=O)O [EDDS, ethylendiaminedisuccinic acid], the “effect of the chelating agent” value [1, 4] was “not able to provide this improved activity”.

With CC(C)=CCC/C(C)=C/COC=O [Geranyl-formiate] the “antibacterial effect in formulations according to the present invention (in words)” value (“antibacterial effect” for short) [2] was “do not provide a sufficient antibacterial effect” and the “rapid (30 s) bactericidal activity on gram-negative bacteria (class)” value (shortened to “rapid (30 s) bactericidal activity”) [2] was “without activity”.

For CCC(=O)OC/C=C(\C)CCC=C(C)C [Geranyl-propionate], the “antibacterial effect” value [2] was “do not provide a sufficient antibacterial effect” and the “rapid (30 s) bactericidal activity” value [2] was “without activity”.

For O=C(O)CC(NC(CC(=O)O)C(=O)O)C(=O)O (stereo not drawn) [IDS, iminodisuccinic acid], the “effect of the chelating agent” value [1, 4] was “not able to provide this improved activity”.

In the case of O=C(O)CN(CC(=O)O)CC(=O)O [NTA, nitrilotriacetic acid], the “effect of the chelating agent” value [1, 4] is reported as “not able to provide this improved activity”.

In the case of CCCCCCCCCCCCOS(=O)(=O)[O-].[Na+] [Sodium dodecylsulfate], the “ratio (I373)/(I384) (pyrene 1:3 ratio)” value ([3]; CONC 0.01% in water) is reported as 1.11, the “ratio (I373)/(I384) (pyrene 1:3 ratio)” value ([3]; CONC 0.02% in water) is reported as 1.12 and the “ratio (I373)/(I384) (pyrene 1:3 ratio)” value ([3]; CONC 0.04% in water) is reported as 1.08. The “ratio (I373)/(I384) (pyrene 1:3 ratio)” value ([3]; CONC 0.08% in water) was 0.92, the “ratio (I373)/(I384) (pyrene 1:3 ratio)” value ([3]; CONC 0.16% in water) was 0.78 and the “ratio (I373)/(I384) (pyrene 1:3 ratio)” value ([3]; CONC 0.31% in water) was 0.79. For the same compound, the “ratio (I373)/(I384) (pyrene 1:3 ratio)” value ([3]; CONC 0.63% in water) was 0.75 and the “ratio (I373)/(I384) (pyrene 1:3 ratio)” value ([3]; CONC 1.25% in water) was 0.74.

For CC(=O)OCCC(C)CCC=C(C)C (stereo not drawn) [citronellyl-actetate], the “antibacterial effect” value [2] was “do not provide a sufficient antibacterial effect” and the “rapid (30 s) bactericidal activity” value [2] was “without activity”.

With CC(C)=CCCC(C)CCOC=O (stereo not drawn) [citronellyl-formiate] the “antibacterial effect” value [2] was “do not provide a sufficient antibacterial effect” and the “rapid (30 s) bactericidal activity” value [2] was “without activity”.

For CCC(=O)OCCC(C)CCC=C(C)C (stereo not drawn) [citronellyl-propionate], the “antibacterial effect” value [2] was “do not provide a sufficient antibacterial effect” and the “rapid (30 s) bactericidal activity” value [2] was “without activity”.

In the case of C=CC(C)(CCC=C(C)C)OC=O (stereo not drawn) [linalyl-formiate], the “antibacterial effect” value [2] is reported as “do not provide a sufficient antibacterial effect” and the “rapid (30 s) bactericidal activity” value [2] is reported as “without activity”.

With C=CC(C)(CCC=C(C)C)OC(=O)CC (stereo not drawn) [linalyl-propionate] the “antibacterial effect” value [2] was “do not provide a sufficient antibacterial effect” and the “rapid (30 s) bactericidal activity” value [2] was “without activity”.

In the case of CC(C)=CCC/C(C)=C\COC=O [neryl-formiate], the “antibacterial effect” value [2] is reported as “do not provide a sufficient antibacterial effect” and the “rapid (30 s) bactericidal activity” value [2] is reported as “without activity”.

In the case of CCC(=O)OC/C=C(/C)CCC=C(C)C [neryl-propionate], the “antibacterial effect” value [2] is reported as “do not provide a sufficient antibacterial effect” and the “rapid (30 s) bactericidal activity” value [2] is reported as “without activity”.

In the case of Cocoamidopropylbetaine, the “ratio (I373)/(I384) (pyrene 1:3 ratio)” value ([3]; CONC 0.01% in water) is reported as 1.19, the “ratio (I373)/(I384) (pyrene 1:3 ratio)” value ([3]; CONC 0.02% in water) is reported as 1.02 and the “ratio (I373)/(I384) (pyrene 1:3 ratio)” value ([3]; CONC 0.04% in water) is reported as 0.87. The “ratio (I373)/(I384) (pyrene 1:3 ratio)” value ([3]; CONC 0.08% in water) was 0.80, the “ratio (I373)/(I384) (pyrene 1:3 ratio)” value ([3]; CONC 0.16% in water) was 0.80 and the “ratio (I373)/(I384) (pyrene 1:3 ratio)” value ([3]; CONC 0.31% in water) was 0.78. For the same compound, the “ratio (I373)/(I384) (pyrene 1:3 ratio)” value ([3]; CONC 0.63% in water) was 0.79 and the “ratio (I373)/(I384) (pyrene 1:3 ratio)” value ([3]; CONC 1.25% in water) was 0.78.

With Diisopropyl-sulfosuccinate the “ratio (I373)/(I384) (pyrene 1:3 ratio)” value ([3]; CONC 0.01% in water) was 1.21, the “ratio (I373)/(I384) (pyrene 1:3 ratio)” value ([3]; CONC 0.02% in water) was 1.21 and the “ratio (I373)/(I384) (pyrene 1:3 ratio)” value ([3]; CONC 0.04% in water) was 1.20. The “ratio (I373)/(I384) (pyrene 1:3 ratio)” value ([3]; CONC 0.08% in water) was 1.36, the “ratio (I373)/(I384) (pyrene 1:3 ratio)” value ([3]; CONC 0.16% in water) was 1.99 and the “ratio (I373)/(I384) (pyrene 1:3 ratio)” value ([3]; CONC 0.31% in water) was 1.65. The “ratio (I373)/(I384) (pyrene 1:3 ratio)” value ([3]; CONC 0.63% in water) was 1.48 and the “ratio (I373)/(I384) (pyrene 1:3 ratio)” value ([3]; CONC 1.25% in water) was 1.39.

For Sodium xylene sulfonate, the “ratio (I373)/(I384) (pyrene 1:3 ratio)” value ([3]; CONC 0.01% in water) was 1.37, the “ratio (I373)/(I384) (pyrene 1:3 ratio)” value ([3]; CONC 0.02% in water) was 1.46 and the “ratio (I373)/(I384) (pyrene 1:3 ratio)” value ([3]; CONC 0.04% in water) was 2.84. For the same compound, the “ratio (I373)/(I384) (pyrene 1:3 ratio)” value ([3]; CONC 0.08% in water) was 1.62, the “ratio (I373)/(I384) (pyrene 1:3 ratio)” value ([3]; CONC 0.16% in water) was 1.49 and the “ratio (I373)/(I384) (pyrene 1:3 ratio)” value ([3]; CONC 0.31% in water) was 1.43. For the same compound, the “ratio (I373)/(I384) (pyrene 1:3 ratio)” value ([3]; CONC 0.63% in water) was 1.41 and the “ratio (I373)/(I384) (pyrene 1:3 ratio)” value ([3]; CONC 1.25% in water) was 1.04.
